Publication PMC7395068, “The evolution of strategies to minimise the risk of human drug-induced liver injury (DILI) in drug discovery and development” (Archives of Toxicology, 2020)
Read-outs that look alike come from different tables or passages of the source.

Columns and labels:
PHH [1] = settings: In vitro Assay; ref Albrecht 2019; cited from earlier work
[2] = test system: HepG2 C3A spheroid, BSEP, Glu/Gal in HepG2 cells, bioactivation; settings: cited from earlier work
hLiMTs [3] = settings: cited from earlier work
rBsep = settings: In vitro Assay; ref Dawson 2012; cited from earlier work
HepG2 cells [4] = settings: cited from earlier work
[5] = cited from earlier work
[6] = cited from earlier work; remark: listed apart in the source
HepaRG cells = settings: HepaRG cells, BMCs in relation to 10 × human Cmax.tot; ref National Toxicology Program; cited from earlier work
hLiMTs [7] = test: Combined HCI (HCS) and cellular ATP 3D assay in hLiMTs; settings: for AC50 / minimal effective concentration: Homo sapiens
[8] = plasma free fraction; cited from earlier work
[9] = test system: isolated mouse liver mitochondria; settings: In vitro Assay; ref Porceddu 2012; cited from earlier work
HepG2 = test system: HepG2; set-up: method as in Albrecht 2019; settings: In vitro Assay; ref Albrecht 2019; cited from earlier work
PHH [10] = settings: cited from earlier work
HepG2 cells [11] = settings: cited from earlier work; remark: listed apart in the source
PHH spheroids = settings: In vitro Assay; ref Vorrink 2018; cited from earlier work
[12] = Plasma free fraction (fu) and unbound Cmax (Cmax,u); format: in vitro ADME, human; settings: unbound plasma Cmax
PHH liver spheroid = test system: PHH liver spheroid; set-up: method as in Foster et al. 2019; settings: liver-chip of comparable sensitivity, ref Foster et al. 2019; cited from earlier work
[13] = cited from earlier work; remark: listed apart in the source
HepaRG spheroids = test: Combined HCI (HCS) and cellular ATP 3D assay in HepaRG spheroids; settings: for AC50 / minimal effective concentration: Homo sapiens
[14] = test system: THLE-Null and THLE-3A4 cells; settings: In vitro Assay; ref Gustafsson 2014; cited from earlier work
HepG2 cells [15] = settings: cited from earlier work; remark: listed apart in the source
[16] = In vitro Assay, ref Proctor 2017
[17] = Microtissue model structural based (HCI), combined HCS and ATP, MEC < 25 × Cmax.tot cut-off

CC(=O)Nc1ccc(O)cc1 [acetaminophen]
Cytotoxicity PHH 48 hrs (PHH [1]): +VE
Bayesian Machine Learning DILI prediction, Williams (2019) ([2]; Bayesian modeling, ref Williams et al. 2019): +VE
Bayesian Machine Learning ([2]; In vitro Assay, ref Williams 2019): +VE
hLiMTs ATP <100uM (hLiMTs [3]; [16]): -VE
hLiMTs/100uM, Proctor (2017) (hLiMTs [3]; hLiMTs, ATP, IC50 threshold 100 µM, ref Proctor et al. 2017): -VE
Inhibition of rBsep cutoff<1& cmax u>.2 (rBsep): -VE
Inhibition of rBsep cutoff<3 (rBsep): -VE
Structural based (HCI) (HepG2 cells [4]; In vitro Assay, ref Persson 2013): -VE
DILI in vitro assay prediction, Persson (2013) (HepG2 cells [4]; Structural based (HCI), HepG2, ref Persson et al. 2013): -VE
DILI severity category (Chen et al. [2016]) ([5]; LTKB DILIrank category, ref Chen et al. 2016): Most
DILI severity category ([5]; human DILI severity, ref Chen et al.): Most
DILI +VE (5-8), DILI -VE (-4) ([5]; ref Chen 2016): +VE
DILI severity category ([5]; ref Chen 2016): vMost-DILI-Concern
Assigned DILI category ([6]; Chen et al. 2016 or literature alignment, ref Chen et al. 2016): 3
In vivo DILI ([6]; […]): +VE
In vivo DILI ([6]; ref Albrecht 2019): +VE
In vivo DILI ([6]; ref Dawson 2012): +VE
In vivo DILI ([6]; ref Garside 2014): +VE
In vivo DILI ([6]; ref Gustafsson 2014): +VE
In vivo DILI ([6]; ref O'Brien 2006): +VE
In vivo DILI ([6]; ref Persson 2013): +VE
In vivo DILI ([6]; ref Porceddu 2012): +VE
In vivo DILI ([6]; ref Proctor 2017): +VE
In vivo DILI ([6]; ref Schadt 2015): +VE
In vivo DILI ([6]; ref Tolosa 2012): +VE
In vivo DILI ([6]; ref Vorrink 2018): +VE
In vivo DILI ([6]; ref Williams 2019): +VE
In vivo DILI ([6]; ref Xu 2008): +VE
DILI identification by high-throughput transcriptomics (HepaRG cells): identified
AC50 (hLiMTs [7]; read-out: ATP endpoint AC50): 1240 µM
minimal effective concentration (hLiMTs [7]; read-out: ATP endpoint MEC): 292 µM
AC50 (hLiMTs [7]; read-out: HCS endpoint AC50): 4340 µM
minimal effective concentration (hLiMTs [7]; read-out: HCS endpoint MEC): 456 µM
DILI prediction hLiMTs (HCS-MEC) (hLiMTs [7]; [17]): +VE (MEC < 25 × Cmax.tot cut-off)
hLiMTs <25x Avg Cmax ATP (hLiMTs [7]; hLiMTs, ATP endpoint, cut-off <25x Avg Cmax): +ve
hLiMTs <100x Avg Cmaxu ATP (hLiMTs [7]; hLiMTs, ATP endpoint, cut-off <100x Avg Cmaxu): +ve (<100x Avg Cmaxu)
hLiMTs <25x Avg Cmax HCS (hLiMTs [7]; hLiMTs, HCS endpoints, cut-off <25x Avg Cmax): +ve
hLiMTs <100x Avg Cmaxu HCS (hLiMTs [7]; hLiMTs, HCS endpoints, cut-off <100x Avg Cmaxu): +ve (<100x Avg Cmaxu)
hLiMTs <25x Avg Cmax All (hLiMTs [7]; hLiMTs, all endpoints (ATP and HCS), cut-off <25x Avg Cmax): +ve
hLiMTs Cmax max All (hLiMTs [7]; hLiMTs, all endpoints, Cmax max used): +ve
hLiMTs Cmax min All (hLiMTs [7]; hLiMTs, all endpoints, Cmax min used): +ve
hLiMTs <10 uM All (hLiMTs [7]; hLiMTs, all endpoints, cut-off <10 uM): -ve
hLiMTs <100x Avg Cmaxu All (hLiMTs [7]; hLiMTs, all endpoints, cut-off <100x Avg Cmaxu): +ve (<100x Avg Cmaxu)
fu [8]: 0.920
in vitro data EC2<=1x Cmax [9]: +VE
in vitro data EC20<=2uM [9]: -VE
Cytotoxicity HepG2 48 hrs (HepG2): +VE
PHH/100uM, Proctor (2017) (PHH [10]; 2D PHH, ATP, IC50 threshold 100 µM, ref Proctor et al. 2017): -VE
PHH ATP <100uM (PHH [10]; [16]): +VE (IC50 threshold of 100 µM)
Structural based (HCI) (HepG2 cells [11]; In vitro Assay, ref O'Brien 2006): +VE
DILI in vitro assay prediction, O'Brien (2006) (HepG2 cells [11]; Structural based (HCI), HepG2, ref O'Brien et al. 2006): +VE (lowest HCI endpoint IC50 (or in the absence of dose–response < 100 µM) < 30 × total human plasma exposure levels (Cmax.tot))
hLiMTs ATP <20 x Cmax (PHH spheroids): +VE (IC20 < 20 × Cmax.tot cut-off)
Human plasma Cmax,u [12]: 139.840 µM
detection in 3D microtissues (PHH liver spheroid): detected
Cmax ([13]; read-out: Cmax.tot, value used by Albrecht, ref Albrecht et al. 2019): 109 µM
Cmax ([13]; read-out: Human plasma Cmax, total plasma Cmax.tot, median of 9 literature references): 152 µM
HepaRG <25x Avg Cmax ATP (HepaRG spheroids; HepaRG, ATP endpoint, cut-off <25x Avg Cmax): +ve
HepaRG <100x Avg Cmaxu ATP (HepaRG spheroids; HepaRG, ATP endpoint, cut-off <100x Avg Cmaxu): +ve (<100x Avg Cmaxu)
HepaRG <25x Avg Cmax HCS (HepaRG spheroids; HepaRG, HCS endpoints, cut-off <25x Avg Cmax): +ve
HepaRG <100x Avg Cmaxu HCS (HepaRG spheroids; HepaRG, HCS endpoints, cut-off <100x Avg Cmaxu): +ve (<100x Avg Cmaxu)
HepaRG <25x Avg Cmax All (HepaRG spheroids; HepaRG, all endpoints (ATP and HCS), cut-off <25x Avg Cmax): +ve
HepaRG Cmax max All (HepaRG spheroids; HepaRG, all endpoints, Cmax max used): +ve
HepaRG Cmax min All (HepaRG spheroids; HepaRG, all endpoints, Cmax min used): +ve
HepaRG <10 uM All (HepaRG spheroids; HepaRG, all endpoints, cut-off <10 uM): -ve
HepaRG <100x Avg Cmaxu All (HepaRG spheroids; HepaRG, all endpoints, cut-off <100x Avg Cmaxu): +ve (<100x Avg Cmaxu)
AC50 (HepaRG spheroids; HepaRG, read-out: ATP endpoint AC50): 760 µM
minimal effective concentration (HepaRG spheroids; HepaRG, read-out: ATP endpoint MEC): 187 µM
AC50 (HepaRG spheroids; HepaRG, read-out: HCS endpoint AC50): 3100 µM
minimal effective concentration (HepaRG spheroids; HepaRG, read-out: HCS endpoint MEC): 656 µM
DILI prediction HepaRG spheroids (HCS-MEC) (HepaRG spheroids; [17]): +VE (MEC < 25 × Cmax.tot cut-off)
THLE-Null [14]: -VE
Structural based (HCI) (HepG2 cells [15]; In vitro Assay, ref Tolosa 2012): +VE
DILI in vitro assay prediction, Tolosa (2012) (HepG2 cells [15]; Structural based (HCI), HepG2, ref Tolosa et al. 2012): +VE
